Laboratory results from patent US20230310442A1, “POLY HYDROXY OLIGOMER COATED DOLUTEGRAVIR AQUASOMES AND METHOD THEREOF” (priority 2020, published 2023).

Assays:
[1] = In vitro drug dissolution, USP Type II apparatus; format: physicochemical
Description: In vitro drug dissolution studies 01 In vitro dissolution studies of the pure dolutegravir (PD) and its aquasomal formulations (F1 to F6) were carried out using USP-Type II dissolution apparatus. 900 ml of pH 6.8 phosphate buffer was used as dissolution media and temperature was maintained at 37° C.±0.5° C. with paddle rotation speed at 50 rpm. Aliquots of 5 ml were withdrawn at various intervals and were replaced with same quantity of fresh dissolution medium to maintain the sink condition. Samples were filtered through wattman filter paper and analysed UV—Vis spectrophotometrically at 259.80 nm. The dissolution experiments were conducted in triplicate and the cumulative percentage of drug release was calculated. […] Dissolution efficiency (DE) values were calculated as per Khan^1 and T50 (time taken for 50% dissolution) values were recorded from the dissolution profiles.
A comparative in vitro drug release study was performed in pH 6.8 phosphate buffer for pure dolutegravir sodium (PD) and all designed formulations (F1-F6), the data was shown in Table 7. The dissolution experiments were conducted in triplicate. Dissolution efficiency (DE5) values were calculated as per Khan^1. T50 (time taken for 50% dissolution) values were recorded from the dissolution profiles.
The dissolution data of formulations PD and dolutegravir aquasomes were fitted into mathematical models such as zero order, first order and Hixson Crowell models kinetics and the plots were shown in Table No: 8. The release kinetics of pure drug (PD) and dolutegravir aquasomes follows zero order as well as Hixson Crowell model because the values of regression coefficient obtained for zero order release profiles are higher as compared to first order kinetics. […] The cube root dissolution rate constant (KH) of Hixson Crowell values of PD is 0.124 and optimized formulation F6 is 0.713. During dissolution, the radius of the particle, mass of the particle was changed. […]

[2] = cited from earlier work
[3] = test system: herpes simplex virus (HSV) infected vero cells; test: In vitro MTT antiviral assay; format: cell-based; details: 0.01 to 100 μ/mL
[4] = Preformulation study: solubility of dolutegravir sodium in water; format: physicochemical; details: preformulation studies
Description: Preformulation studies of dolutegravir sodium were performed to know the physical appearance and organoleptic properties.

human plasma proteins = details: cited from earlier work
UGT1A1 = biological target: T1, UGT1A1 (Homo sapiens, UniProt P22309); details: cited from earlier work
T1 sequence (P22309 26-533): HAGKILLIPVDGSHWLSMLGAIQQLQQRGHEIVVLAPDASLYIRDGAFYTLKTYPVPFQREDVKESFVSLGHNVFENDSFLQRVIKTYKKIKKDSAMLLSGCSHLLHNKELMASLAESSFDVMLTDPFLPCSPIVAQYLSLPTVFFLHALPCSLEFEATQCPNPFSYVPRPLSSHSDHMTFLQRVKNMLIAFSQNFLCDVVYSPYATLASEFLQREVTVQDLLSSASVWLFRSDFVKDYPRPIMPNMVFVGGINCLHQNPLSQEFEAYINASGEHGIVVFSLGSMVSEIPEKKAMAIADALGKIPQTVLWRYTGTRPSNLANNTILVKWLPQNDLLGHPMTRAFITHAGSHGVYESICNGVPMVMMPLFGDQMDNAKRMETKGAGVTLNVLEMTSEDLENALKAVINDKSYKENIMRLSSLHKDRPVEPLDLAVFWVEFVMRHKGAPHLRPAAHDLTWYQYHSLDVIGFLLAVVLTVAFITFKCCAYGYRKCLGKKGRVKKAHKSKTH

[5] = cited from earlier work; remark: listed apart in the source

- T50 (time taken for 50% dissolution) [1]: 38.5 h
- % of Dolutegravir Sodium Release ([1]; 0 hr, pH 6.8 phosphate buffer): 0%
- % of Dolutegravir Sodium Release ([1]; 0.5 hr, pH 6.8 phosphate buffer): 7.38 ± 0.12%
- % of Dolutegravir Sodium Release ([1]; 1 hr, pH 6.8 phosphate buffer): 13.45 ± 0.14%
- % of Dolutegravir Sodium Release ([1]; 2 hr, pH 6.8 phosphate buffer): 15.27 ± 0.12%
- % of Dolutegravir Sodium Release ([1]; 3 hr, pH 6.8 phosphate buffer): 15.79 ± 0.19%
- % of Dolutegravir Sodium Release ([1]; 4 hr, pH 6.8 phosphate buffer): 16.92 ± 0.12%
- % of Dolutegravir Sodium Release ([1]; 5 hr, pH 6.8 phosphate buffer): 17.82 ± 0.09%
- % of Dolutegravir Sodium Release ([1]; 6 hr, pH 6.8 phosphate buffer): 18.33 ± 0.10%
- % of Dolutegravir Sodium Release ([1]; 7 hr, pH 6.8 phosphate buffer): 20.13 ± 0.12%
- % of Dolutegravir Sodium Release ([1]; 8 hr, pH 6.8 phosphate buffer): 20.27 ± 0.43%
- % of Dolutegravir Sodium Release ([1]; 9 hr, pH 6.8 phosphate buffer): 22.27 ± 0.12%
- % of Dolutegravir Sodium Release ([1]; 10 hr, pH 6.8 phosphate buffer): 22.45 ± 0.14%
- % of Dolutegravir Sodium Release ([1]; 11 hr, pH 6.8 phosphate buffer): 25.23 ± 0.13%
- % of Dolutegravir Sodium Release ([1]; 12 hr, pH 6.8 phosphate buffer): 26.45 ± 0.22%
- DE5 (dissolution efficiency) ([1]; at 5 h, pH 6.8 phosphate buffer): 14.80%
- Hixson Crowell (KH) ([1]; cube root dissolution rate constant): 0.124 mg^1/3/hr
- First order (K1) ([1]; dissolution rate constant): 0.018 h⁻¹
- Zero order (Ko) ([1]; dissolution rate constant): 1.566 mg/h
- Correlation Coefficient Values (r) First order ([1]; drug release kinetics fit): 0.845
- Correlation Coefficient Values (r) Hixson Crowell ([1]; drug release kinetics fit): 0.443
- Correlation Coefficient Values (r) Zero order ([1]; drug release kinetics fit): 0.812
- solubility [4]: 1.6 µg/mL
Structure (SMILES): C[C@@H]1CCO[C@H]2Cn3cc(C(=O)NCc4ccc(F)cc4F)c(=O)c(O)c3C(=O)N12 [PD, sodium (4R,12aS)-9-{[(2,4-difluorophenyl)methyl]carbamoyl}-4-methyl-6,8-dioxo-3,4,6,8,12,12a-hexahydro-2H-pyrido[1′, 2′:4,5]pyrazino[2,1-b][1,3]oxazin-7-olate]
- Solubility: soluble in water ([2]; at 25° C.): 3500 µg/mL
- Particle Size ([2]; drug profile): 5 microns
- IC50 [3]: 57.9 ± 4.6 µg/mL
- protein bound to human plasma proteins (human plasma proteins): > 98.9%
- primarily metabolized by (UGT1A1): UGT1A1
- Cmax ([5]; absorption): 7.97-14.70 μm
- tmax ([5]; absorption): 0.5 to 2 h
- Clearance ([5]; in vivo): 1 L/h
- Half-life ([5]; in vivo): 14 h
- drug eliminated from urine ([5]; in vivo): 32%
- drug eliminated through feces ([5]; in vivo): 53%
